Results: patent US9776997B2, “3-aryl-substituted imidazo[1,2-A]pyridines and their use” (Bayer Pharma Aktiengesellschaft, priority 2013, dated 2017)

Molecular target: T1, recombinant guanylate cyclase reporter cell line (Rattus norvegicus, UniProt P19686+P20595)
T1 construct: expressed in transfected cells; host or cells: recombinant reporter cell line
T1 sequence (P19686 1-690): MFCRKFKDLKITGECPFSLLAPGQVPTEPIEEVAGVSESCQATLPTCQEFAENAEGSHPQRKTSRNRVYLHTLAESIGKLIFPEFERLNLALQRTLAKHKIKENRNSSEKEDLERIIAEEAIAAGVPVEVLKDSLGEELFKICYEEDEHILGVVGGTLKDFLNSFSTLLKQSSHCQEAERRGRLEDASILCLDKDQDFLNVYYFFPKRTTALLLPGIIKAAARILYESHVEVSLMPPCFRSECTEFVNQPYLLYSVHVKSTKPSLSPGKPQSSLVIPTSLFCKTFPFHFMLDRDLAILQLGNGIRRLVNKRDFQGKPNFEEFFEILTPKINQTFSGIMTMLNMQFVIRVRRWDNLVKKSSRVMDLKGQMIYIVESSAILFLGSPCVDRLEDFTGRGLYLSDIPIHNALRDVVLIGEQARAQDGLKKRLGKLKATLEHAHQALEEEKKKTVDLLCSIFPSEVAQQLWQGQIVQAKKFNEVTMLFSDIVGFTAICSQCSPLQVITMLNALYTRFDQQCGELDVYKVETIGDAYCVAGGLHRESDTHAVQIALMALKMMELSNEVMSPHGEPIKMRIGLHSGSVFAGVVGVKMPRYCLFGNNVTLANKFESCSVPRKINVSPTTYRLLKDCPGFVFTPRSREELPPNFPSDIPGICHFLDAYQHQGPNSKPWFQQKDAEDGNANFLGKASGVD
T1 sequence (P20595 1-619): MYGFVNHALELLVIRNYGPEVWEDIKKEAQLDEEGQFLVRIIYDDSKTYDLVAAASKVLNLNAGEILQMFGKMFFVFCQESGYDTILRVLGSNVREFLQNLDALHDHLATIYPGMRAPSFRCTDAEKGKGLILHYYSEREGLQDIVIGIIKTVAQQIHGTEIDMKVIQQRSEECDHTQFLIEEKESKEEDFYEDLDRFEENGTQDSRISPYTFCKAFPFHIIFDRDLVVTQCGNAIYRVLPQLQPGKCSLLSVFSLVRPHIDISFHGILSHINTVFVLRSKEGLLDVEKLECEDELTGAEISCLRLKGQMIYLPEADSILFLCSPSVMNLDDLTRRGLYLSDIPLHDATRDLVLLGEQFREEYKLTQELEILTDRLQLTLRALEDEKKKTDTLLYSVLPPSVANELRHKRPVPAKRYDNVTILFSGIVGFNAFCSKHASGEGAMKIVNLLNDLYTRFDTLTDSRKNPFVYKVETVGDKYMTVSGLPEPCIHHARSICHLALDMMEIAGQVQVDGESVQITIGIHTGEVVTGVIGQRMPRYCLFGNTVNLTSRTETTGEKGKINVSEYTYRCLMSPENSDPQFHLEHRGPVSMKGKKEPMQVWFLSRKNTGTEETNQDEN
Experiment: Effect on a recombinant guanylate cyclase reporter cell line
Assay type: cell-based
Settings: MEC = minimum effective concentration; in some cases mean values for individual determinations
Procedure: B-2. Effect on a Recombinant Guanylate Cyclase Reporter Cell Line
The cellular effect of the inventive compounds is determined using a recombinant guanylate cyclase reporter cell line, as described in F. Wunder et al., Anal. Biochem. 339, 104-112 (2005).
Representative MEC values (MEC=minimum effective concentration) for the inventive compounds are shown in the table below (in some cases as mean values for individual determinations): […]

Structure (SMILES) | MEC [µM]
Cc1cc(OCc2c(F)cccc2F)c2nc(C)c(-c3cnn(C(C)CC(=O)O)c3)n2c1 (racemic) [Example 110, rac-3-(4-{8-[(2,6-difluorobenzyl)oxy]-2,6-dimethylimidazo[1,2-a]pyridin-3-yl}-1H-pyrazol-1-yl)butanoic acid] | 1.0
CCN(CC)CCNC(=O)CC(C)n1cc(-c2c(C)nc3c(OCc4c(F)cccc4F)cc(C)cn23)cn1 (racemic) [Example 112, rac-N-[2-(Diethylamino)ethyl]-3-(4-{8-[(2,6-difluorobenzyl)oxy]-2,6-dimethylimidazo[1,2-a]pyridin-3-yl}-1H-pyrazol-1-yl)butanamide] | 1.0
Cc1nc2c(OCc3c(F)cccc3F)cccn2c1-c1cnn(Cc2ccccc2)c1 [Example 1, 3-(1-Benzyl-1H-pyrazol-4-yl)-8-[(2,6-difluorobenzyl)oxy]-2-methylimidazo[1,2-a]pyridine] | 0.065
CC(=O)c1cccc(-c2c(C)nc3c(OCc4c(F)cccc4F)cccn23)c1 [Example 2, 1-(3-{8-[(2,6-difluorobenzyl)oxy]-2-methylimidazo[1,2-a]pyridin-3-yl}phenyl)ethanone] | 0.1
Cc1cc(-c2c(C)nc3c(OCc4c(F)cccc4F)cccn23)ccn1 [Example 3, 8-[(2,6-difluorobenzyl)oxy]-2-methyl-3-(2-methylpyridin-4-yl)imidazo[1,2-a]pyridine] | 0.1
CC(=O)Nc1cccc(-c2c(C)nc3c(OCc4c(F)cccc4F)cccn23)c1 [Example 4, N-(3-{8-[(2,6-difluorobenzyl)oxy]-2-methylimidazo[1,2-a]pyridin-3-yl}phenyl)acetamide] | 0.2
CCN(C)Cc1cccc(-c2c(C)nc3c(OCc4c(F)cccc4F)cccn23)c1 [Example 5, N-(3-{8-[(2,6-difluorobenzyl)oxy]-2-methylimidazo[1,2-a]pyridin-3-yl}benzyl)-N-methylethanamine] | 0.2
CCS(=O)(=O)c1cccc(-c2c(C)nc3c(OCc4c(F)cccc4F)cccn23)c1 [Example 6, 8-[(2,6-difluorobenzyl)oxy]-3-[3-(ethylsulphonyl)phenyl]-2-methylimidazo[1,2-a]pyridine] | 0.1
Cc1nc2c(OCc3c(F)cccc3F)cccn2c1-c1cccc(C(N)=O)c1 [Example 7, 3-{8-[(2,6-difluorobenzyl)oxy]-2-methylimidazo[1,2-a]pyridin-3-yl}benzamide] | 0.1
Cc1nc2c(OCc3c(F)cccc3F)cccn2c1-c1cccc(O)c1 [Example 8, 3-{8-[(2,6-difluorobenzyl)oxy]-2-methylimidazo[1,2-a]pyridin-3-yl}phenol] | 0.1
Cc1nc2c(OCc3c(F)cccc3F)cccn2c1-c1ccc(C(=O)NC2CC2)cc1 [Example 9, N-cyclopropyl-4-{8-[(2,6-difluorobenzyl)oxy]-2-methylimidazo[1,2-a]pyridin-3-yl}benzamide] | 0.3
CCOc1ccc(-c2c(C)nc3c(OCc4c(F)cccc4F)cccn23)cc1 [Example 10, 8-[(2,6-difluorobenzyl)oxy]-3-(4-ethoxyphenyl)-2-methylimidazo[1,2-a]pyridine] | 1.0
Cc1nc2c(OCc3c(F)cccc3F)cccn2c1-c1ccnn1C [Example 11, 8-[(2,6-difluorobenzyl)oxy]-2-methyl-3-(1-methyl-1H-pyrazol-5-yl)imidazo[1,2-a]pyridine] | 3.0
Cc1cc(-c2c(C)nc3c(OCc4c(F)cccc4F)cccn23)cnc1Cl [Example 12, 3-(6-chloro-5-methylpyridin-3-yl)-8-[(2,6-difluorobenzyl)oxy]-2-methylimidazo[1,2-a]pyridine] | 0.1
Cc1nc2c(OCc3c(F)cccc3F)cccn2c1-c1cccc(Br)c1 [Example 13, 3-(3-bromophenyl)-8-[(2,6-difluorobenzyl)oxy]-2-methylimidazo[1,2-a]pyridine] | 0.3
Cc1nc2c(OCc3c(F)cccc3F)cccn2c1-c1ccsc1 [Example 14, 8-[(2,6-difluorobenzyl)oxy]-2-methyl-3-(3-thienyl)imidazo[1,2-a]pyridine] | 0.3
Cc1nc2c(OCc3c(F)cccc3F)cccn2c1-c1cccc(CN2CCCC2)c1 [Example 15, 8-[(2,6-difluorobenzyl)oxy]-2-methyl-3-[3-(pyrrolidin-1-ylmethyl)phenyl]imidazo[1,2-a]pyridine] | 0.065
Cc1nc2c(OCc3c(F)cccc3F)cccn2c1-c1ccc(F)cc1 [Example 16, 8-[(2,6-difluorobenzyl)oxy]-3-(4-fluorophenyl)-2-methylimidazo[1,2-a]pyridine] | 1.0
Cc1nc2c(OCc3c(F)cccc3F)cccn2c1-c1ccc(C#N)cc1 [Example 17, 4-{8-[(2,6-difluorobenzyl)oxy]-2-methylimidazo[1,2-a]pyridin-3-yl}benzonitrile] | 1.0
CCOC(=O)c1cccc(-c2c(C)nc3c(OCc4c(F)cccc4F)cccn23)c1 [Example 18, Ethyl 3-{8-[(2,6-difluorobenzyl)oxy]-2-methylimidazo[1,2-a]pyridin-3-yl}benzoate] | 1.0
Cc1nc2c(OCc3c(F)cccc3F)cccn2c1-c1cnc2ccccc2c1 [Example 19, 3-{8-[(2,6-difluorobenzyl)oxy]-2-methylimidazo[1,2-a]pyridin-3-yl}quinoline] | 1.0
Cc1nc2c(OCc3c(F)cccc3F)cccn2c1-c1cccc(CN2CCOCC2)c1 [Example 21, 8-[(2,6-difluorobenzyl)oxy]-2-methyl-3-[3-(morpholin-4-ylmethyl)phenyl]imidazo[1,2-a]pyridine] | 1.0
CCCOc1ccc(-c2c(C)nc3c(OCc4c(F)cccc4F)cccn23)cn1 [Example 22, 8-[(2,6-difluorobenzyl)oxy]-2-methyl-3-(6-propoxypyridin-3-yl)imidazo[1,2-a]pyridine] | 1.0
Cc1nc2c(OCc3c(F)cccc3F)cccn2c1-c1ccc2c(c1)COC2=O [Example 23, 5-{8-[(2,6-difluorobenzyl)oxy]-2-methylimidazo[1,2-a]pyridin-3-yl}-2-benzofuran-1(3H)-one] | 1.0
Cc1nc2c(OCc3c(F)cccc3F)cccn2c1-c1cccc(OC(F)(F)F)c1 [Example 24, 8-[(2,6-difluorobenzyl)oxy]-2-methyl-3-[3-(trifluormethoxy)phenyl]imidazo[1,2-a]pyridine] | 1.0
COc1ccc(-c2c(C)nc3c(OCc4c(F)cccc4F)cccn23)cc1 [Example 25, 8-[(2,6-difluorobenzyl)oxy]-3-(4-methoxyphenyl)-2-methylimidazo[1,2-a]pyridine] | 1.0
Cc1nc2c(OCc3c(F)cccc3F)cccn2c1-c1ccc(CN(C)C)cc1 [Example 26, 1-(4-{8-[(2,6-difluorobenzyl)oxy]-2-methylimidazo[1,2-a]pyridin-3-yl}phenyl)-N,N-dimethylmethanamine] | 1.0
COCCN(C)Cc1cc(-c2c(C)nc3c(OCc4c(F)cccc4F)cccn23)ccc1OC [Example 27, N-(5-{8-[(2,6-difluorobenzyl)oxy]-2-methylimidazo[1,2-a]pyridin-3-yl}-2-methoxybenzyl)-2-methoxy-N-methylethanamine] | 1.0
